In ChEMBL document CHEMBL1146921, “Synthesis and antibacterial activity of 6-O-heteroarylcarbamoyl-11,12-lactoketolides” (2006) one finds MIC data, which are given here for 17 molecules.

≈ marks a conversion by molar mass, not a printed value.

Type in all cases: functional
In one assay the test system is Haemophilus influenzae. As to the kind of experiment: Antibacterial activity against Haemophilus influenzae OC4882.
For assay [1], the system named is Staphylococcus aureus. As to the kind of experiment: Antibacterial activity against Staphylococcus aureus Smith OC4172 in presence of 50% mouse serum.
For assay [2], the system named is Staphylococcus aureus. As to the kind of experiment: Antibacterial activity against Staphylococcus aureus Smith OC4172.
For assay [3], the system named is Streptococcus pneumoniae. As to the kind of experiment: Antibacterial activity against erythromycin-resistant Streptococcus pneumoniae OC4421.
The subject of assay [4] is Streptococcus pneumoniae. As to the kind of experiment: Antibacterial activity against erythromycin-resistant Streptococcus pneumoniae OC4051.
Assay [5] concerns Streptococcus pneumoniae. The assay is described as follows: Antibacterial activity against erythromycin-susceptible Streptococcus pneumoniae ATCC 6301.

For `CC[C@H]1OC(=O)[C@H](C)C(=O)[C@H](C)[C@@H](O[C@@H]2O[C@H](C)C[C@H](N(C)C)[C@H]2O)[C@](C)(OC(=O)NC/C=C/c2cccnc2)C[C@@H](C)C(=O)[C@H](C)[C@H]2CC(=O)O[C@@]21C`, the MIC against Haemophilus influenzae stood at 4 µg/mL (≈ 5.28 µM); in the assay on Staphylococcus aureus [1] it was 1 µg/mL; in the assay on Staphylococcus aureus [2], 1 µg/mL (≈ 1.32 µM); in the assay with Streptococcus pneumoniae [3] it was 0.5 µg/mL (≈ 0.66 µM); in the assay with Streptococcus pneumoniae [4], 2 µg/mL (≈ 2.64 µM); in the assay with Streptococcus pneumoniae [5], 0.03 µg/mL (≈ 0.0396 µM).
As for `CC[C@H]1OC(=O)[C@H](C)C(=O)[C@H](C)[C@@H](O[C@@H]2O[C@H](C)C[C@H](N(C)C)[C@H]2O)[C@](C)(OC(=O)NCc2ccc3ncccc3c2)C[C@@H](C)C(=O)[C@H](C)[C@H]2CC(=O)O[C@@]21C`, the MIC turned out to be 8 µg/mL (≈ 10.2 µM) against Haemophilus influenzae; 4 µg/mL with Staphylococcus aureus [1]; 1 µg/mL (≈ 1.28 µM) in the assay with Staphylococcus aureus [2]; 0.5 µg/mL (≈ 0.639 µM) against Streptococcus pneumoniae [3]; 2 µg/mL (≈ 2.56 µM) in the assay with Streptococcus pneumoniae [4]; 0.06 µg/mL (≈ 0.0767 µM) against Streptococcus pneumoniae [5].
With `CC[C@H]1OC(=O)[C@H](C)C(=O)[C@H](C)[C@@H](O[C@@H]2O[C@H](C)C[C@H](N(C)C)[C@H]2O)[C@](C)(OC(=O)NCc2ccc(-c3ccccn3)cc2)C[C@@H](C)C(=O)[C@H](C)[C@H]2CC(=O)O[C@@]21C`, the MIC was 16 µg/mL (≈ 19.8 µM) against Haemophilus influenzae; 8 µg/mL in the assay on Staphylococcus aureus [1]; 1 µg/mL (≈ 1.24 µM) in the assay on Staphylococcus aureus [2]; 0.5 µg/mL (≈ 0.619 µM) in the assay on Streptococcus pneumoniae [3]; 0.25 µg/mL (≈ 0.309 µM) against Streptococcus pneumoniae [4]; 0.03 µg/mL (≈ 0.0371 µM) in the assay with Streptococcus pneumoniae [5].
As for `CC[C@H]1OC(=O)[C@H](C)C(=O)[C@H](C)[C@@H](O[C@@H]2O[C@H](C)C[C@H](N(C)C)[C@H]2O)[C@](C)(OC(=O)NC/C=C/c2ccc3ncccc3c2)C[C@@H](C)C(=O)[C@H](C)[C@H]2CC(=O)O[C@@]21C`, the MIC with Haemophilus influenzae was 2 µg/mL (≈ 2.48 µM); in the assay on Staphylococcus aureus [1], 2 µg/mL; against Staphylococcus aureus [2] it was 0.5 µg/mL (≈ 0.619 µM); in the assay on Streptococcus pneumoniae [3], 0.25 µg/mL (≈ 0.309 µM); in the assay on Streptococcus pneumoniae [4], 0.12 µg/mL (≈ 0.149 µM); against Streptococcus pneumoniae [5], 0.03 µg/mL (≈ 0.0371 µM).
Regarding `CC[C@H]1OC(=O)[C@H](C)C(=O)[C@H](C)[C@@H](O[C@@H]2O[C@H](C)C[C@H](N(C)C)[C@H]2O)[C@](C)(OC(=O)NC/C=C/c2ccc3nccnc3c2)C[C@@H](C)C(=O)[C@H](C)[C@H]2CC(=O)O[C@@]21C`, the MIC with Haemophilus influenzae worked out at 4 µg/mL (≈ 4.94 µM); with Staphylococcus aureus [1], 2 µg/mL; with Staphylococcus aureus [2], 0.5 µg/mL (≈ 0.618 µM); against Streptococcus pneumoniae [3] it was 0.5 µg/mL (≈ 0.618 µM); in the assay on Streptococcus pneumoniae [4], 0.25 µg/mL (≈ 0.309 µM); against Streptococcus pneumoniae [5], 0.03 µg/mL (≈ 0.0371 µM).
As for `CC[C@H]1OC(=O)[C@H](C)C(=O)[C@H](C)[C@@H](O[C@@H]2O[C@H](C)C[C@H](N(C)C)[C@H]2O)[C@](C)(OC(=O)NC/C=C/c2ccc(-c3ccccn3)cc2)C[C@@H](C)C(=O)[C@H](C)[C@H]2CC(=O)O[C@@]21C`, the MIC in the assay with Haemophilus influenzae worked out at 8 µg/mL (≈ 9.59 µM); in the assay on Staphylococcus aureus [1], 2 µg/mL; against Staphylococcus aureus [2], 0.5 µg/mL (≈ 0.6 µM); against Streptococcus pneumoniae [3] it was 0.5 µg/mL (≈ 0.6 µM); with Streptococcus pneumoniae [4] it was 0.25 µg/mL (≈ 0.3 µM); against Streptococcus pneumoniae [5], 0.06 µg/mL (≈ 0.0719 µM).
As to `CC[C@H]1OC(=O)[C@H](C)C(=O)[C@H](C)[C@@H](O[C@@H]2O[C@H](C)C[C@H](N(C)C)[C@H]2O)[C@](C)(OC(=O)NCc2cnc3ccccc3c2)C[C@@H](C)C(=O)[C@H](C)[C@H]2CC(=O)O[C@@]21C`, the MIC against Haemophilus influenzae came to 8 µg/mL (≈ 10.2 µM); in the assay on Staphylococcus aureus [1], 4 µg/mL; with Staphylococcus aureus [2], 0.5 µg/mL (≈ 0.639 µM); in the assay on Streptococcus pneumoniae [3], 0.5 µg/mL (≈ 0.639 µM); in the assay on Streptococcus pneumoniae [4], 0.5 µg/mL (≈ 0.639 µM); in the assay on Streptococcus pneumoniae [5], 0.06 µg/mL (≈ 0.0767 µM).
Regarding `CC[C@H]1OC(=O)[C@H](C)C(=O)[C@H](C)[C@@H](O[C@@H]2O[C@H](C)C[C@H](N(C)C)[C@H]2O)[C@](C)(OC(=O)NC/C=C/c2cncc3ccccc23)C[C@@H](C)C(=O)[C@H](C)[C@H]2CC(=O)O[C@@]21C`, the MIC is 4 µg/mL (≈ 4.95 µM) in the assay on Haemophilus influenzae; 4 µg/mL with Staphylococcus aureus [1]; 0.5 µg/mL (≈ 0.619 µM) against Staphylococcus aureus [2]; 0.25 µg/mL (≈ 0.309 µM) with Streptococcus pneumoniae [3]; 0.25 µg/mL (≈ 0.309 µM) against Streptococcus pneumoniae [4]; not above 0.015 µg/mL against Streptococcus pneumoniae [5].
In the case of `CC[C@H]1OC(=O)[C@H](C)C(=O)[C@H](C)[C@@H](O[C@@H]2O[C@H](C)C[C@H](N(C)C)[C@H]2O)[C@](C)(OC(=O)NC/C=C/c2ccc3cccnc3c2)C[C@@H](C)C(=O)[C@H](C)[C@H]2CC(=O)O[C@@]21C`, the MIC was determined as 2 µg/mL (≈ 2.48 µM) in the assay with Haemophilus influenzae; 4 µg/mL with Staphylococcus aureus [1]; 0.25 µg/mL (≈ 0.309 µM) against Staphylococcus aureus [2]; 0.25 µg/mL (≈ 0.309 µM) in the assay on Streptococcus pneumoniae [3]; 0.12 µg/mL (≈ 0.149 µM) in the assay with Streptococcus pneumoniae [4]; 0.03 µg/mL (≈ 0.0371 µM) in the assay on Streptococcus pneumoniae [5].
Turning to `CC[C@H]1OC(=O)[C@H](C)C(=O)[C@H](C)[C@@H](O[C@@H]2O[C@H](C)C[C@H](N(C)C)[C@H]2O)[C@](C)(OC(=O)NC/C=C/c2cnc3ccccc3c2)C[C@@H](C)C(=O)[C@H](C)[C@H]2CC(=O)O[C@@]21C`, the MIC in the assay with Haemophilus influenzae was 8 µg/mL (≈ 9.9 µM); with Staphylococcus aureus [1], 2 µg/mL; against Staphylococcus aureus [2], 0.5 µg/mL (≈ 0.619 µM); against Streptococcus pneumoniae [3], 0.25 µg/mL (≈ 0.309 µM); against Streptococcus pneumoniae [4], 0.12 µg/mL (≈ 0.149 µM); in the assay with Streptococcus pneumoniae [5], not above 0.015 µg/mL.
Take `CC[C@H]1OC(=O)[C@H](C)C(=O)[C@H](C)[C@@H](O[C@@H]2O[C@H](C)C[C@H](N(C)C)[C@H]2O)[C@](C)(OC(=O)NC/C=C/c2ccc(-c3ccccc3)nc2)C[C@@H](C)C(=O)[C@H](C)[C@H]2CC(=O)O[C@@]21C`: the MIC in the assay with Haemophilus influenzae came to 8 µg/mL (≈ 9.59 µM); in the assay with Staphylococcus aureus [1], 2 µg/mL; against Staphylococcus aureus [2] it was 0.5 µg/mL (≈ 0.6 µM); in the assay with Streptococcus pneumoniae [3] it was 0.5 µg/mL (≈ 0.6 µM); in the assay with Streptococcus pneumoniae [4] it was 0.5 µg/mL (≈ 0.6 µM).
For `CC[C@H]1OC(=O)[C@H](C)C(=O)[C@H](C)[C@@H](O[C@@H]2O[C@H](C)C[C@H](N(C)C)[C@H]2O)[C@](C)(OC(=O)NC/C=C/c2ccc(-c3ncccn3)cc2)C[C@@H](C)C(=O)[C@H](C)[C@H]2NC(=O)O[C@@]21C`, the MIC with Haemophilus influenzae stood at 4 µg/mL (≈ 4.78 µM); with Staphylococcus aureus [1], 0.25 µg/mL; against Staphylococcus aureus [2], 0.12 µg/mL (≈ 0.144 µM); in the assay with Streptococcus pneumoniae [3], 0.06 µg/mL (≈ 0.0718 µM); with Streptococcus pneumoniae [4] it was 0.06 µg/mL (≈ 0.0718 µM); with Streptococcus pneumoniae [5], 0.03 µg/mL (≈ 0.0359 µM).
As to `CC[C@H]1OC(=O)[C@H](C)C(=O)[C@H](C)[C@@H](O[C@@H]2O[C@H](C)C[C@H](N(C)C)[C@H]2O)[C@](C)(OC(=O)NC/C=C/c2ccc(-c3ncccn3)cc2)C[C@@H](C)C(=O)[C@@H](C)[C@H]2CC(=O)O[C@@]21C`, the MIC with Haemophilus influenzae came out at 8 µg/mL (≈ 9.58 µM); in the assay on Staphylococcus aureus [1], 16 µg/mL; against Staphylococcus aureus [2], 2 µg/mL (≈ 2.4 µM); in the assay on Streptococcus pneumoniae [3], 1 µg/mL (≈ 1.2 µM); against Streptococcus pneumoniae [4], 2 µg/mL (≈ 2.4 µM); with Streptococcus pneumoniae [5] it was 0.12 µg/mL (≈ 0.144 µM).
On to `CC[C@H]1OC(=O)[C@H](C)C(=O)[C@H](C)[C@@H](O[C@@H]2O[C@H](C)C[C@H](N(C)C)[C@H]2O)[C@](C)(OC(=O)NC/C=C/c2ccc(-c3ncccn3)cc2)C[C@@H](C)C(=O)[C@H](C)[C@H]2CC(=O)O[C@@]21C`, for which the MIC came to 8 µg/mL (≈ 9.58 µM) against Haemophilus influenzae; 0.5 µg/mL in the assay with Staphylococcus aureus [1]; 0.12 µg/mL (≈ 0.144 µM) against Staphylococcus aureus [2]; 0.25 µg/mL (≈ 0.299 µM) with Streptococcus pneumoniae [3]; 0.06 µg/mL (≈ 0.0719 µM) in the assay with Streptococcus pneumoniae [4]; 0.03 µg/mL (≈ 0.0359 µM) against Streptococcus pneumoniae [5].
Take `CC[C@H]1OC(=O)[C@H](C)C(=O)[C@H](C)[C@@H](O[C@@H]2O[C@H](C)C[C@H](N(C)C)[C@H]2O)[C@](C)(OC(=O)NC/C=C/c2cccc(-c3ncccn3)c2)C[C@@H](C)C(=O)[C@H](C)[C@H]2CC(=O)O[C@@]21C`: the MIC in the assay on Haemophilus influenzae was 4 µg/mL (≈ 4.79 µM); in the assay on Staphylococcus aureus [1], 2 µg/mL; in the assay on Staphylococcus aureus [2] it was 0.5 µg/mL (≈ 0.599 µM); against Streptococcus pneumoniae [3], 0.5 µg/mL (≈ 0.599 µM); in the assay with Streptococcus pneumoniae [4] it was 0.25 µg/mL (≈ 0.299 µM); against Streptococcus pneumoniae [5], 0.06 µg/mL (≈ 0.0719 µM).
Consider `CC[C@H]1OC(=O)[C@H](C)[C@@H](O[C@H]2C[C@@](C)(OC)[C@@H](O)[C@H](C)O2)[C@H](C)[C@@H](O[C@@H]2O[C@H](C)C[C@H](N(C)C)[C@H]2O)[C@](C)(O)C[C@@H](C)C(=O)[C@H](C)[C@@H](O)[C@]1(C)O` [ERYTHROMYCIN], for which the MIC in the assay on Haemophilus influenzae was 8 µg/mL (≈ 10.9 µM); in the assay on Staphylococcus aureus [1], 0.12 µg/mL; against Staphylococcus aureus [2], 0.5 µg/mL (≈ 0.681 µM); against Streptococcus pneumoniae [3] it was 4 µg/mL (≈ 5.45 µM); with Streptococcus pneumoniae [4], more than 16 µg/mL; in the assay on Streptococcus pneumoniae [5], 0.06 µg/mL (≈ 0.0818 µM).
`CC[C@H]1OC(=O)[C@H](C)C(=O)[C@H](C)[C@@H](O[C@@H]2O[C@H](C)C[C@H](N(C)C)[C@H]2O)[C@](C)(OC)C[C@@H](C)C(=O)[C@H](C)[C@H]2N(CCCCn3cnc(-c4cccnc4)c3)C(=O)O[C@]12C` [TELITHROMYCIN]: the MIC amounted to 2 µg/mL (≈ 2.46 µM) against Haemophilus influenzae; 0.5 µg/mL with Staphylococcus aureus [1]; 0.12 µg/mL (≈ 0.148 µM) with Staphylococcus aureus [2]; 0.12 µg/mL (≈ 0.148 µM) in the assay on Streptococcus pneumoniae [3]; 0.06 µg/mL (≈ 0.0739 µM) against Streptococcus pneumoniae [4]; 0.015 µg/mL (≈ 0.0185 µM) against Streptococcus pneumoniae [5].
